Measurements taken from US6881719B2, “β-turn peptidomimetic cyclic compounds” (McGill University, priority 2000, dated 2005).

How the values were obtained:
[1] = test system: 4-3.6 cells (p75+TrkA+); experiment: Cell survival (MTT), 4-3.6 cells; type: cell-based, rat; settings: 72 hours;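 on % Protection: 100% equals survival with optimal NGF at 1 nM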
Description: The 4-3.6 cells are B104 cells stably transfected with human trkA cDNA, and express equal levels of p75 and TrkA (TrkA+ p75+). For screening agents that activate or antagonize TrkC receptors, NIH3T3 fibroblasts were stably transfected with human TrkC cDNA. These cells respond to the ligand NT-3. For screening agents that activate or antagonize TrkA receptors, NIH3T3 fibroblasts were stably transfected with human TrkA cDNA. These cells respond to the ligand NGF.
Cell lines: 5,000 cells/well in protein-free media (PFHM-II, GIBCO, Toronto) containing 0.2% bovine serum albumin (BSA) (Crystalline fraction V, Sigma, St. Louis, Mo.) were seeded in 96 well plates (Falcon, Mississauga, Ontario). The cultures were untreated, or treated with the indicated test or control ligands. Cell viability was quantitated using the MTT assay after 56-72 hours of culture. […] The OD of untreated cells were subtracted. The higher optical density of untreated primary cultures is likely due to cellular heterogeneity and to endogenous production of limiting amounts of growth factors.

[2] = test system: DRG neuronal cultures; experiment: Morphometric analysis of DRG dissociated neurons (neurite outgrowth); type: cell-based, rat; settings: 8 days
Method: In FIG. 1 primary neuronal DRG cultures were treated as indicated for 8 days, and cell differentiation was studied morphometrically. Magnification 60×. Pictures representative of 3 independent experiments.
Fetal rat DRG primary cultures were established from Sprague Dawley day 17 rat embryos. All ganglia were dissected and dissociated first enzymatically with trypsin and then mechanically. Dissociated cells were cultured (10^5 cells/well) in 96 well plates pre-coated with collagen, and grown for a total of 8 days in Neuro Basal Medium containing N2 supplement (GIBCO, Toronto), antibiotics, and L-glutamine. These DRG cultures are ˜85% TrkA-expressing and are heavily dependent on TrkA signals for survival.
The effect of D3 on TrkA-mediated cellular differentiation was assessed using two independent assays: morphometric analysis of DRG dissociated neurons and induction of ChAT activity in septal neuronal cultures.

NCCCC[C@@H]1NC(=O)[C@H](CCC(=O)O)NC(=O)c2cc([N+](=O)[O-])ccc2OCCC(C(=O)NCC(=O)O)NC1=O (stereo partly drawn) [D3, EKHse-G-OH]
% Protection ([1]; compound 10 μM + 10 pM NGF): 55 ± 3% | Optical Density ([1]; compound 10 μM + 10 pM NGF): 255 ± 14 | % Protection ([1]; compound 10 μM alone): 8 ± 2% | Optical Density ([1]; compound 10 μM alone): 95 ± 9 | neurite outgrowth ([2]; D3 alone): undergo neurite outgrowth in response to D3 | potentiation of NGF effect on neurite outgrowth ([2]; D3 with NGF): potentiates the effect of NGF
